Measurements as given in the CheMixHub viscosity set.

Test: xn = mol fraction of the nth substance listed

CCCCCCCCCCO + CCCCCCC
viscosity [mPa·s], 101.33 kPa
Settings | 298.15 K | 308.15 K
x1 = 0.0386 | 0.4346 | 0.3825
x1 = 0.0772 | 0.4872 | 0.4312
x1 = 0.1584 | 0.642 | 0.5562
x1 = 0.2472 | 0.8698 | 0.7324
x1 = 0.3368 | 1.225 | 1.034
x1 = 0.4264 | 1.647 | 1.331
x1 = 0.5326 | 2.338 | 1.903
x1 = 0.6364 | 3.29 | 2.7
x1 = 0.7498 | 5.08 | 3.93
x1 = 0.8055 | 5.926 | 4.829
x1 = 0.8688 | 7.145 | 5.938
x1 = 0.9331 | 8.722 | 6.788

CCCCCCCCCCO + C1CCCCC1
Settings | viscosity [mPa·s]
293.15 K, 100 kPa, x2 = 0.0822 | 12.17
293.15 K, 100 kPa, x2 = 0.1602 | 10.37
293.15 K, 100 kPa, x2 = 0.2397 | 8.74
293.15 K, 100 kPa, x2 = 0.3476 | 6.8
293.15 K, 100 kPa, x2 = 0.4402 | 5.45
293.15 K, 100 kPa, x2 = 0.5604 | 3.92
293.15 K, 100 kPa, x2 = 0.6506 | 2.95
293.15 K, 100 kPa, x2 = 0.7397 | 2.18
293.15 K, 100 kPa, x2 = 0.8508 | 1.48
293.15 K, 100 kPa, x2 = 0.94 | 1.1
303.15 K, 100 kPa, x2 = 0.0822 | 8.4
303.15 K, 100 kPa, x2 = 0.1602 | 7.28
303.15 K, 100 kPa, x2 = 0.2397 | 6.22
303.15 K, 100 kPa, x2 = 0.3476 | 4.96
303.15 K, 100 kPa, x2 = 0.4402 | 4.02
303.15 K, 100 kPa, x2 = 0.5604 | 2.97
303.15 K, 100 kPa, x2 = 0.6506 | 2.31
303.15 K, 100 kPa, x2 = 0.7397 | 1.77
303.15 K, 100 kPa, x2 = 0.8508 | 1.29
303.15 K, 100 kPa, x2 = 0.94 | 0.98
303.15 K, 101.33 kPa, x1 = 0.1009 | 1.08
303.15 K, 101.33 kPa, x1 = 0.1983 | 1.404
303.15 K, 101.33 kPa, x1 = 0.2985 | 1.829
303.15 K, 101.33 kPa, x1 = 0.3954 | 2.357
303.15 K, 101.33 kPa, x1 = 0.5 | 3.076
303.15 K, 101.33 kPa, x1 = 0.5845 | 3.781
303.15 K, 101.33 kPa, x1 = 0.6939 | 4.863
303.15 K, 101.33 kPa, x1 = 0.7949 | 6.023
303.15 K, 101.33 kPa, x1 = 0.8949 | 7.33
308 K, 101 kPa, x2 = 0.0801 | 6.912
308 K, 101 kPa, x2 = 0.2421 | 5.397
308 K, 101 kPa, x2 = 0.3455 | 4.468
308 K, 101 kPa, x2 = 0.4703 | 3.396
308 K, 101 kPa, x2 = 0.5762 | 2.579
308 K, 101 kPa, x2 = 0.6347 | 2.14
308 K, 101 kPa, x2 = 0.7203 | 1.702
308 K, 101 kPa, x2 = 0.8752 | 1.061
308 K, 101 kPa, x2 = 0.9408 | 0.86
313.15 K, 100 kPa, x2 = 0.0822 | 5.95
313.15 K, 100 kPa, x2 = 0.1602 | 5.22
313.15 K, 100 kPa, x2 = 0.2397 | 4.53
313.15 K, 100 kPa, x2 = 0.3476 | 3.69
313.15 K, 100 kPa, x2 = 0.4402 | 3.04
313.15 K, 100 kPa, x2 = 0.5604 | 2.29
313.15 K, 100 kPa, x2 = 0.6506 | 1.82
313.15 K, 100 kPa, x2 = 0.7397 | 1.43
313.15 K, 100 kPa, x2 = 0.8508 | 1.05
313.15 K, 100 kPa, x2 = 0.94 | 0.81
323.15 K, 100 kPa, x2 = 0.0822 | 4.35
323.15 K, 100 kPa, x2 = 0.1602 | 3.85
323.15 K, 100 kPa, x2 = 0.2397 | 3.36
323.15 K, 100 kPa, x2 = 0.3476 | 2.78
323.15 K, 100 kPa, x2 = 0.4402 | 2.35
323.15 K, 100 kPa, x2 = 0.5604 | 1.84
323.15 K, 100 kPa, x2 = 0.6506 | 1.51
323.15 K, 100 kPa, x2 = 0.7397 | 1.22
323.15 K, 100 kPa, x2 = 0.8508 | 0.91
323.15 K, 100 kPa, x2 = 0.94 | 0.71

c1ccc(Oc2ccccc2)cc1 + NCc1ccccc1
303.15 K, 101 kPa
Settings | viscosity [mPa·s]
x2 = 0.1488 | 2.696
x2 = 0.2823 | 2.409
x2 = 0.4028 | 2.179
x2 = 0.512 | 1.991
x2 = 0.6114 | 1.839
x2 = 0.7024 | 1.714
x2 = 0.786 | 1.613
x2 = 0.8629 | 1.531
x2 = 0.934 | 1.465

CN1CCN(C)C1=O + CCCCCCn1cc[n+](C)c1.[Cl-]
100 kPa
Settings | viscosity [mPa·s]
298.15 K, x2 = 0.1007 | 4.815
303.15 K, x2 = 0.7981 | 978.5

CCOC(=O)OCC + CC(=O)N(C)C
298.15 K, 101 kPa
Settings | viscosity [mPa·s]
x1 = 0.1371 | 0.925
x1 = 0.2045 | 0.912
x1 = 0.2821 | 0.896
x1 = 0.3603 | 0.881
x1 = 0.4462 | 0.865
x1 = 0.5333 | 0.849
x1 = 0.6265 | 0.831
x1 = 0.7265 | 0.811
x1 = 0.7839 | 0.8
x1 = 0.8296 | 0.79
x1 = 0.8887 | 0.778

c1ccc(Oc2ccccc2)cc1 + c1ccc(-c2ccccc2)cc1
Settings | viscosity [mPa·s]
293.15 K, 101 kPa, x1 = 0.705 | 4.35
298.15 K, 101 kPa, x1 = 0.705 | 3.78
298.15 K, 101 kPa, x1 = 0.85 | 3.71
298.95 K, 101.33 kPa, x1 = 0.715 | 3.66
303.15 K, 101 kPa, x1 = 0.85 | 3.32
308.15 K, 101 kPa, x1 = 0.705 | 2.94
308.15 K, 101 kPa, x1 = 0.85 | 2.93
309.85 K, 101.33 kPa, x1 = 0.715 | 2.84
313.15 K, 101 kPa, x1 = 0.55 | 2.63
313.15 K, 101 kPa, x1 = 0.705 | 2.61
313.15 K, 101 kPa, x1 = 0.85 | 2.61
314.15 K, 101.33 kPa, x1 = 0.715 | 2.57
318.65 K, 101.33 kPa, x1 = 0.715 | 2.4
321.95 K, 101.33 kPa, x1 = 0.715 | 2.29

c1ccc(Oc2ccccc2)cc1 + CCOCC
298.15 K, 101 kPa
Settings | viscosity [mPa·s]
x2 = 0.0704 | 3.158
x2 = 0.1318 | 2.737
x2 = 0.2193 | 2.153
x2 = 0.3297 | 1.631
x2 = 0.4245 | 1.258
x2 = 0.5102 | 0.9926
x2 = 0.6076 | 0.7614
x2 = 0.7088 | 0.5733
x2 = 0.7826 | 0.4552
x2 = 0.9092 | 0.3106

CC(C)CCC[C@@H](C)[C@H]1CC[C@H]2[C@@H]3CC=C4C[C@@H](O)CC[C@]4(C)[C@H]3CC[C@]12C + c1ccccc1
viscosity [mPa·s], 101.33 kPa
Settings | x1 = 0.00346 | x1 = 0.00447 | x1 = 0.00753 | x1 = 0.008796 | x1 = 0.01276 | x1 = 0.01496 | x1 = 0.01612 | x1 = 0.01894 | x1 = 0.02302
298 K | 0.617 | 0.624 | 0.643 | 0.651 | 0.681 | 0.698 | 0.708 | 0.733 | 0.773
303 K | 0.574 | 0.579 | 0.598 | 0.607 | 0.633 | 0.647 | 0.657 | 0.677 | 0.714
313 K | 0.506 | 0.509 | 0.525 | 0.529 | 0.552 | 0.565 | 0.571 | 0.588 | 0.614
323 K | 0.448 | 0.453 | 0.466 | 0.472 | 0.489 | 0.499 | 0.504 | 0.517 | 0.541

CCCCCCCCCCCC + C1CCCCC1
Settings | viscosity [mPa·s]
297.78 K, 101.3 kPa, x1 = 0.4996 | 1.131
298.13 K, 101.3 kPa, x1 = 0.7489 | 1.247
298.15 K, 100 kPa, x2 = 0.2 | 1.263
298.15 K, 100 kPa, x2 = 0.4 | 1.171
298.15 K, 100 kPa, x2 = 0.6 | 1.071
298.15 K, 100 kPa, x2 = 0.8 | 0.979
298.15 K, 101.33 kPa, x1 = 0.0169 | 0.9114
298.15 K, 101.33 kPa, x2 = 0.1549 | 1.299
298.15 K, 101.33 kPa, x2 = 0.2886 | 1.237
298.15 K, 101.33 kPa, x2 = 0.3945 | 1.187
298.15 K, 101.33 kPa, x2 = 0.5031 | 1.138
298.15 K, 101.33 kPa, x2 = 0.5879 | 1.098
298.15 K, 101.33 kPa, x2 = 0.6636 | 1.048
298.15 K, 101.33 kPa, x2 = 0.7601 | 1.011
298.15 K, 101.33 kPa, x2 = 0.7983 | 0.9774
298.15 K, 101.33 kPa, x2 = 0.8536 | 0.9573
298.15 K, 101.33 kPa, x2 = 0.8943 | 0.9433
298.15 K, 101.33 kPa, x2 = 0.941 | 0.9223
298.31 K, 101.3 kPa, x1 = 0.5001 | 1.121
298.35 K, 101.3 kPa, x1 = 0.5001 | 1.116
298.38 K, 101.3 kPa, x1 = 0.2501 | 0.9923
298.43 K, 101.3 kPa, x1 = 0.2501 | 0.9883
298.43 K, 101.3 kPa, x1 = 0.4996 | 1.114
298.61 K, 101.3 kPa, x1 = 0.7489 | 1.232
298.62 K, 101.3 kPa, x1 = 0.7489 | 1.232
308.76 K, 101.3 kPa, x1 = 0.5001 | 0.9475
308.86 K, 101.3 kPa, x1 = 0.5001 | 0.948
323.15 K, 100 kPa, x2 = 0.2 | 0.8615
323.15 K, 100 kPa, x2 = 0.4 | 0.8075
323.15 K, 100 kPa, x2 = 0.6 | 0.7427
323.15 K, 100 kPa, x2 = 0.8 | 0.6736

CCC#N + CCCCOC(C)=O
303.15 K, 101.33 kPa
Settings | viscosity [mPa·s]
x1 = 0.11 | 0.6161
x1 = 0.2014 | 0.5958
x1 = 0.2942 | 0.5799
x1 = 0.4034 | 0.5557
x1 = 0.5034 | 0.5332
x1 = 0.594 | 0.5076
x1 = 0.7008 | 0.4785
x1 = 0.798 | 0.4496
x1 = 0.8966 | 0.419
